Results reported in ChEMBL document CHEMBL4308841, “Synthesis, in vitro antiproliferative activity, and kinase inhibitory effects of pyrazole-containing diarylureas and diarylamides” (Eur J Med Chem, 2018).

Key:
Format in all cases: functional
[1] = system: CCRF-CEM; assay: Growth inhibition of human CCRF-CEM cells assessed as cell growth at 10 uM incubated for 48 hrs by sulforhodamine B assay relative to control; details: read-out: Activity
[2] = system: MOLT-4; assay: Growth inhibition of human MOLT4 cells assessed as cell growth at 10 uM incubated for 48 hrs by sulforhodamine B assay relative to control; details: MOLT-4, 48 h, read-out: Activity
[3] = system: A549; assay: Growth inhibition of human A549/ATCC cells assessed as cell growth at 10 uM incubated for 48 hrs by sulforhodamine B assay relative to control; details: A549, 48 h, read-out: Activity
[4] = system: NCI-H226; assay: Growth inhibition of human NCI-H226 cells assessed as cell growth at 10 uM incubated for 48 hrs by sulforhodamine B assay relative to control; details: NCI-H226, 48 h, read-out: Activity
[5] = system: NCI-H23; assay: Growth inhibition of human NCI-H23 cells assessed as cell growth at 10 uM incubated for 48 hrs by sulforhodamine B assay relative to control; details: NCI-H23, 48 h, read-out: Activity
[6] = system: NCI-H322M; assay: Growth inhibition of human NCI-H322M cells assessed as cell growth at 10 uM incubated for 48 hrs by sulforhodamine B assay relative to control; details: read-out: Activity
[7] = system: NCI-H460; assay: Growth inhibition of human NCI-H460 cells assessed as cell growth at 10 uM incubated for 48 hrs by sulforhodamine B assay relative to control; details: NCI-H460, 48 h, read-out: Activity
[8] = system: COLO 205; assay: Growth inhibition of human COLO205 cells assessed as cell growth at 10 uM incubated for 48 hrs by sulforhodamine B assay relative to control; details: COLO 205, 48 h, read-out: Activity
[9] = system: HCT-116; assay: Growth inhibition of human HCT116 cells assessed as cell growth at 10 uM incubated for 48 hrs by sulforhodamine B assay relative to control; details: HCT-116, 48 h, read-out: Activity
[10] = system: KM12; assay: Growth inhibition of human KM12 cells assessed as cell growth at 10 uM incubated for 48 hrs by sulforhodamine B assay relative to control; details: KM12, 48 h, read-out: Activity
[11] = system: SW-620; assay: Growth inhibition of human SW620 cells assessed as cell growth at 10 uM incubated for 48 hrs by sulforhodamine B assay relative to control; details: SW-620, 48 h, read-out: Activity
[12] = system: SF-539; assay: Growth inhibition of human SF539 cells assessed as cell growth at 10 uM incubated for 48 hrs by sulforhodamine B assay relative to control; details: SF-539, 48 h, read-out: Activity
[13] = system: SNB-75; assay: Growth inhibition of human SNB75 cells assessed as cell growth at 10 uM incubated for 48 hrs by sulforhodamine B assay relative to control; details: SNB-75, 48 h, read-out: Activity
[14] = system: U-251; assay: Growth inhibition of human U251 cells assessed as cell growth at 10 uM incubated for 48 hrs by sulforhodamine B assay relative to control; details: U-251, 48 h, read-out: Activity
[15] = system: SK-MEL-28; assay: Growth inhibition of human SK-MEL-28 cells assessed as cell growth at 10 uM incubated for 48 hrs by sulforhodamine B assay relative to control; details: SK-MEL-28, 48 h, read-out: Activity
[16] = system: SK-MEL-5; assay: Growth inhibition of human SK-MEL-5 cells assessed as cell growth at 10 uM incubated for 48 hrs by sulforhodamine B assay relative to control; details: SK-MEL-5, 48 h, read-out: Activity
[17] = system: UACC-62; assay: Growth inhibition of human UACC62 cells assessed as cell growth at 10 uM incubated for 48 hrs by sulforhodamine B assay relative to control; details: UACC-62, 48 h, read-out: Activity
[18] = system: IGROV-1; assay: Growth inhibition of human IGROV1 cells assessed as cell growth at 10 uM incubated for 48 hrs by sulforhodamine B assay relative to control; details: IGROV-1, 48 h, read-out: Activity
[19] = system: OVCAR-3; assay: Growth inhibition of human OVCAR3 cells assessed as cell growth at 10 uM incubated for 48 hrs by sulforhodamine B assay relative to control; details: OVCAR-3, 48 h, read-out: Activity
[20] = system: OVCAR-5; assay: Growth inhibition of human OVCAR5 cells assessed as cell growth at 10 uM incubated for 48 hrs by sulforhodamine B assay relative to control; details: OVCAR-5, 48 h, read-out: Activity
[21] = system: 786-0; assay: Growth inhibition of human 786-0 cells assessed as cell growth at 10 uM incubated for 48 hrs by sulforhodamine B assay relative to control; details: 786-0, 48 h, read-out: Activity
[22] = system: A498; assay: Growth inhibition of human A498 cells assessed as cell growth at 10 uM incubated for 48 hrs by sulforhodamine B assay relative to control; details: A498, 48 h, read-out: Activity
[23] = system: ACHN; assay: Growth inhibition of human ACHN cells assessed as cell growth at 10 uM incubated for 48 hrs by sulforhodamine B assay relative to control; details: read-out: Activity
[24] = system: CAKI-1; assay: Growth inhibition of human Caki1 cells assessed as cell growth at 10 uM incubated for 48 hrs by sulforhodamine B assay relative to control; details: CAKI-1, 48 h, read-out: Activity
[25] = system: RXF 393; assay: Growth inhibition of human RXF393 cells assessed as cell growth at 10 uM incubated for 48 hrs by sulforhodamine B assay relative to control; details: RXF 393, 48 h, read-out: Activity
[26] = system: SN12C; assay: Growth inhibition of human SN12C cells assessed as cell growth at 10 uM incubated for 48 hrs by sulforhodamine B assay relative to control; details: read-out: Activity
[27] = system: UO-31; assay: Growth inhibition of human UO31 cells assessed as cell growth at 10 uM incubated for 48 hrs by sulforhodamine B assay relative to control; details: UO-31, 48 h, read-out: Activity
[28] = system: PC-3; assay: Growth inhibition of human PC3 cells assessed as cell growth at 10 uM incubated for 48 hrs by sulforhodamine B assay relative to control; details: PC-3, 48 h, read-out: Activity
[29] = system: DU-145; assay: Growth inhibition of human DU145 cells assessed as cell growth at 10 uM incubated for 48 hrs by sulforhodamine B assay relative to control; details: DU-145, 48 h, read-out: Activity
[30] = system: MCF7; assay: Growth inhibition of human MCF7 cells assessed as cell growth at 10 uM incubated for 48 hrs by sulforhodamine B assay relative to control; details: MCF7, 48 h, read-out: Activity
[31] = system: MDA-MB-231; assay: Growth inhibition of human MDA-MB-231 cells assessed as cell growth at 10 uM incubated for 48 hrs by sulforhodamine B assay relative to control; details: MDA-MB-231, 48 h, read-out: Activity
[32] = system: BT-549; assay: Growth inhibition of human BT549 cells assessed as cell growth at 10 uM incubated for 48 hrs by sulforhodamine B assay relative to control; details: BT-549, 48 h, read-out: Activity
[33] = system: T47D; assay: Growth inhibition of human T47D cells assessed as cell growth at 10 uM incubated for 48 hrs by sulforhodamine B assay relative to control; details: read-out: Activity

| Structure (SMILES) | growth at 10 µM [1] [%] | growth at 10 µM [2] [%] | growth at 10 µM [3] [%] | growth at 10 µM [4] [%] | growth at 10 µM [5] [%] | growth at 10 µM [6] [%] | growth at 10 µM [7] [%] | growth at 10 µM [8] [%] | growth at 10 µM [9] [%] | growth at 10 µM [10] [%] | growth at 10 µM [11] [%] | growth at 10 µM [12] [%] | growth at 10 µM [13] [%] | growth at 10 µM [14] [%] | growth at 10 µM [15] [%] | growth at 10 µM [16] [%] | growth at 10 µM [17] [%] | growth at 10 µM [18] [%] | growth at 10 µM [19] [%] | growth at 10 µM [20] [%] | also measured |
| --- | --- | --- | --- | --- | --- | --- | --- | --- | --- | --- | --- | --- | --- | --- | --- | --- | --- | --- | --- | --- | --- |
| COc1cc(Cl)cc(-c2nn(-c3cccc(NC(=O)c4cc(C(F)(F)F)cc(C(F)(F)F)c4)c3)cc2-c2ccncc2)c1 | 57.1 | 55.3 | 43.5 | 76 | 72.1 | 80.3 | 41 | 88.7 | 35.2 | 55.5 | 86.2 | 80 | 60.8 | 60.7 | 78.8 | 67.3 | 81.4 | 100 | 25.5 | 83 | growth at 10 µM [21]: 80.2%; growth at 10 µM [22]: -1.74%; growth at 10 µM [23]: 58.2%; growth at 10 µM [24]: 68.6%; growth at 10 µM [25]: 67.7%; growth at 10 µM [26]: 69.8%; growth at 10 µM [27]: 54.3%; growth at 10 µM [28]: 35.6%; growth at 10 µM [29]: 78.2%; growth at 10 µM [30]: 57.8%; growth at 10 µM [31]: 56.7%; growth at 10 µM [32]: 96.8%; growth at 10 µM [33]: 53.4% |
| COc1cc(Cl)cc(-c2nn(-c3cccc(NC(=O)Nc4cc(C(F)(F)F)cc(C(F)(F)F)c4)c3)cc2-c2ccncc2)c1 | -22 | -24.6 | 5.14 | -5.97 | -6.14 | 11 | 0.24 | -64 | -4.6 | 12.2 | 7.18 | -17.7 | 11.3 | -58 | 6.55 | -79.4 | -21.2 | 23 | -1.62 | 21.6 | growth at 10 µM [21]: -26.9%; growth at 10 µM [22]: -21.6%; growth at 10 µM [23]: 10.3%; growth at 10 µM [24]: 8.99%; growth at 10 µM [25]: -29.2%; growth at 10 µM [26]: 9.32%; growth at 10 µM [27]: -0.18%; growth at 10 µM [28]: -6.27%; growth at 10 µM [29]: 13.1%; growth at 10 µM [30]: 3.81%; growth at 10 µM [31]: -75%; growth at 10 µM [32]: 6.61%; growth at 10 µM [33]: 6.56% |
| COc1cc(Cl)cc(-c2nn(-c3cccc(NC(=O)Nc4cccc(C(F)(F)F)c4)c3)cc2-c2ccncc2)c1 | 3.34 | -9.16 | 8.08 | 3.94 | -5.1 | 26.2 | -6.11 | -31.2 | 5.07 | 9.81 | 11.2 | 17 | 12.5 | 4.59 | 14.1 | 5.3 | -11.5 | 28.9 | -0.41 | 34.1 | growth at 10 µM [21]: 13.2%; growth at 10 µM [22]: -6.74%; growth at 10 µM [23]: 5.44%; growth at 10 µM [24]: 16.1%; growth at 10 µM [25]: 11.8%; growth at 10 µM [26]: 13.9%; growth at 10 µM [27]: -4.59%; growth at 10 µM [28]: -9.92%; growth at 10 µM [29]: 15.9%; growth at 10 µM [30]: 0.3%; growth at 10 µM [31]: -9.21%; growth at 10 µM [32]: 12.9%; growth at 10 µM [33]: -0.45% |
| O=C(Nc1cccc(-n2cc(-c3ccncc3)c(-c3cc(O)cc(Cl)c3)n2)c1)c1ccc(N2CCOCC2)c(C(F)(F)F)c1 | 13.1 | -29.7 | 9.62 | 94.7 | 15.4 | 43.5 | -26.1 | 80.5 | 12.7 | 9.89 | -26.2 | 2.4 | 23.1 | -9.64 | -52.4 | 32.2 | 10.8 | 44.3 | 36.4 | 81.4 | growth at 10 µM [21]: 36.6%; growth at 10 µM [22]: 72.7%; growth at 10 µM [23]: 20.7%; growth at 10 µM [24]: 14.8%; growth at 10 µM [25]: -45.6%; growth at 10 µM [26]: 46.4%; growth at 10 µM [27]: 3.98%; growth at 10 µM [28]: 19.1%; growth at 10 µM [29]: 38%; growth at 10 µM [30]: 29.7%; growth at 10 µM [31]: -48%; growth at 10 µM [32]: 52.2%; growth at 10 µM [33]: 29.3% |
| O=C(Nc1cccc(-n2cc(-c3ccncc3)c(-c3cc(O)cc(Cl)c3)n2)c1)Nc1ccc(Cl)c(C(F)(F)F)c1 | 9.31 | -18 | 8.81 | 41.2 | 10.5 | 45 | 3.75 | 63.4 | 6.95 | 15.1 | -33.6 | 32.6 | 24.1 | -26.5 | -13.5 | 23.8 | -1.44 | 30.6 | 1.88 | 59.3 | growth at 10 µM [21]: -29.8%; growth at 10 µM [22]: 21.5%; growth at 10 µM [23]: 21.3%; growth at 10 µM [24]: 29.1%; growth at 10 µM [25]: -49.5%; growth at 10 µM [26]: 34.6%; growth at 10 µM [27]: 18.5%; growth at 10 µM [28]: 5.34%; growth at 10 µM [29]: 18.7%; growth at 10 µM [30]: 13.4%; growth at 10 µM [31]: -47.3%; growth at 10 µM [32]: 47.6%; growth at 10 µM [33]: 25% |
